Data as given in the supplement of paper PMC10307832.

How the values were obtained:
Assay in all cases: relative viability (nuclei count vs DMSO), 5 days (fraction); higher = more cells survive
[1] = compound: Cc1ccc(F)c(NC(=O)Nc2ccc(-c3cccc4[nH]nc(N)c34)cc2)c1 [Linifanib] + CS(=O)(=O)N1CCN(Cc2cc3nc(-c4cccc5[nH]ncc45)nc(N4CCOCC4)c3s2)CC1 [Pictilisib] (partner 1 µM)
Summary of the method: (§1)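 Five library-drug doses in √10 steps were combined with a fixed anchor-drug dose, or a single drug was given alone, by pin tool to lung cancer cell lines in 1536-well plates the day after seeding. Nuclei were stained and counted after 5 days. Relative viability is the nuclei count in treated wells over that in vehicle wells, taken as the median of duplicate plates.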

[2] = compound: Cc1ccc(F)c(NC(=O)Nc2ccc(-c3cccc4[nH]nc(N)c34)cc2)c1 [Linifanib] + O=C(CCCCCCC(=O)Nc1ccccc1)NO [Vorinostat] (partner 1 µM)
Summary of the method: as §1

[3] = compound: Cc1ccc(F)c(NC(=O)Nc2ccc(-c3cccc4[nH]nc(N)c34)cc2)c1 [Linifanib] + CC1(C)CCC(c2ccc(Cl)cc2)=C(CN2CCN(c3ccc(C(=O)NS(=O)(=O)c4ccc(N[C@H](CCN5CCOCC5)CSc5ccccc5)c(S(=O)(=O)C(F)(F)F)c4)cc3)CC2)C1 [Navitoclax] (partner 0.5 µM)
Summary of the method: as §1

[4] = compound: Cc1ccc(F)c(NC(=O)Nc2ccc(-c3cccc4[nH]nc(N)c34)cc2)c1 [Linifanib] + C[C@]1(O)C[C@@H](c2nc(-c3ccc4ccc(-c5ccccc5)nc4c3)c3c(N)nccn32)C1 [Linsitinib] (partner 1 µM)
Summary of the method: as §1

[5] = compound: Cc1ccc(F)c(NC(=O)Nc2ccc(-c3cccc4[nH]nc(N)c34)cc2)c1 [Linifanib] + Cc1nc(NC(=O)N2CCC[C@H]2C(N)=O)sc1-c1ccnc(C(C)(C)C(F)(F)F)c1 [Alpelisib] (partner 2 µM)
Summary of the method: as §1

[6] = compound: Cc1ccc(F)c(NC(=O)Nc2ccc(-c3cccc4[nH]nc(N)c34)cc2)c1 [Linifanib]
Summary of the method: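 Viability was defined as treated-well nuclei divided by vehicle-well nuclei, with the median taken over replicate plates. Cells from lung cancer lines sat overnight at 37 °C in 1536-well plates, received five √10-spaced library-drug doses by pinning on vehicle-anchored plates, and grew 5 days without medium change before one-step fixation, permeabilisation and Hoechst staining, 4× imaging and MetaXpress nuclear counts. Only plates with control CV under 25% and at least one doubling were kept.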

| Cell Line | relative viability ([1]; first compound 0.03162 µM) | relative viability ([1]; first compound 0.1 µM) | relative viability ([1]; first compound 0.3162 µM) | relative viability ([2]; first compound 0.03162 µM) | relative viability ([2]; first compound 0.1 µM) | relative viability ([2]; first compound 0.3162 µM) | relative viability ([3]; first compound 0.03162 µM) | relative viability ([3]; first compound 0.1 µM) | relative viability ([3]; first compound 0.3162 µM) | relative viability ([4]; first compound 0.03162 µM) | relative viability ([4]; first compound 0.1 µM) | relative viability ([4]; first compound 0.3162 µM) | relative viability ([5]; first compound 0.03162 µM) | relative viability ([5]; first compound 0.1 µM) | relative viability ([5]; first compound 0.3162 µM) | relative viability ([6]; 0.03162 µM) | relative viability ([6]; 0.1 µM) | relative viability ([6]; 0.3162 µM) |
| --- | --- | --- | --- | --- | --- | --- | --- | --- | --- | --- | --- | --- | --- | --- | --- | --- | --- | --- |
| LK-2 | 0.495 | 0.537 | 0.489 | 0.286 | 0.529 | 0.283 | 0.791 | 1.03 | 0.704 | 0.516 | 0.502 | 0.536 | 0.895 | 1.06 | 1.01 | 1.05 | 1.12 | 0.965 |
| LOU-NH91 | 0.498 | 0.523 | 0.557 | 0.969 | 0.975 | 0.943 | 0.656 | 0.753 | 0.594 | 0.899 | 1.01 | 0.954 | 0.686 | 0.771 | 0.704 | 0.979 | 1.07 | 0.951 |
| NCI-H358 | 0.407 | 0.37 | 0.32 | 0.72 | 0.723 | 0.803 |  |  |  | 0.691 | 0.738 | 0.693 | 0.897 | 0.879 | 0.795 | 0.896 | 1.16 | 0.924 |
| NCI-H650 | 0.777 | 0.905 | 0.871 | 0.513 | 0.409 | 0.358 |  |  |  | 1 | 1.07 | 0.851 | 1.09 | 1.04 | 1.14 | 1.1 | 1.11 | 0.972 |
| NCI-H661 | 0.424 | 0.487 | 0.38 | 0.792 | 0.751 | 0.75 |  |  |  | 0.505 | 0.676 | 0.467 | 0.647 | 0.787 | 0.515 | 1.02 | 0.977 | 0.962 |
| NCI-H1650 | 0.661 | 0.671 | 0.5 | 0.528 | 0.602 | 0.655 | 0.998 | 1.35 | 1.21 |  |  |  |  |  |  | 0.965 | 0.966 | 0.89 |
| NCI-H1792 | 0.213 | 0.311 | 0.333 |  |  |  | 0.692 | 0.621 | 0.639 | 0.386 | 0.522 | 0.535 | 0.631 | 0.738 | 0.776 | 0.935 | 0.944 | 0.928 |
| NCI-H2170 | 0.297 | 0.332 | 0.304 | 0.806 | 0.814 | 0.823 | 0.557 | 0.616 | 0.448 |  |  |  | 0.787 | 0.875 | 0.776 | 0.989 | 1.01 | 0.928 |
| NCI-H2342 |  |  |  | 0.825 | 0.771 | 0.734 |  |  |  |  |  |  |  |  |  | 1.04 | 0.977 | 0.882 |
| SW 900 |  |  |  | 0.57 | 0.603 | 0.485 |  |  |  |  |  |  |  |  |  | 0.912 | 1.02 | 0.865 |
